Laboratory results published in US20260265267A1, “NOVEL COMPOUNDS WITH MTORC2-INHIBITORY ACTIVITY AND USES THEREOF” (Aliad Biopharma, priority 2023, published 2026).

Experiments:
LC3-II [1] = assay: LC3-II levels in primary cultured cerebral neurons; format: cell-based, SD mice; settings: for effect on LC3-II: 500 nM or 100 nM, time course to 24 hours; for LC3-II (% control): 24 hours
Experimental: Specifically, primary neural cells were cultured from the cerebral cortex of E16 embryos of SD […] with a gestational age 16-day (Orient Bio). The extracted brain was separated into the left and right hemispheres, the meninges were removed, and the brains were treated with trypsin in Ca^2+/Mg^2+-free HBSS solution. […] The cells were seeded at a density of 19,000 cells/cm^2 onto 35 mm culture dishes coated with 50 μg/ml poly-D-Lysine (Sigma, P0899) and 1 μg/ml laminin (Invitrogen, 23017-015), and then maintained in neurobasal complete media supplemented with B27 (Gibco, 17504-044) in a 5% CO2 incubator.
Therefore, the evaluation of mTORC2 inhibitory activity in primary cultured cerebral cells was conducted using the same method as in Experimental Example 1, except that each compound was treated at concentrations of 500 nM or 100 nM for 24 hours. The time-dependent changes in Akt Ser473 phosphorylation, Akt Thr308 phosphorylation, and LC3-II levels were measured by Western blot analysis.

mTORC2 [2] = target: T1, mTORC2 (Homo sapiens, UniProt P42345); assay: mTORC2 inhibitory activity in HeLa cells (Akt Ser473 phosphorylation, Western blot); format: cell-based; settings: for selective inhibition of mTORC2: 40 μM, versus mTORC1; for selective inhibition of mTORC2 / remaining activity at 40 µM: 9 hours; for remaining activity at 40 µM: read-out: pSer473-AKT/AKT (% control); for inhibition at 40 µM: HeLa, 9 h, read-out: reduction in Akt Ser473 phosphorylation compared to the control group
T1 construct: the following experiments were conducted in HeLa cells; endogenous in cells; host or cells: HeLa
Experimental: (§1) Specifically, HeLa cells were cultured in a 5% CO2 incubator at 37° C. in DMEM (Dulbecco's Modified Eagles Media) medium supplemented with 10% FBS, penicillin (100 unit/ml), and streptomycin (100 μg/ml). Cultivation was started by seeding 4×10^5 cells in a 100 mm culture dish, and subculture was carried out every 3 days.
(§2) Human cell line HeLa cells were seeded in a 60 mm culture dish at a density of 2×10^5 cells/plate, and cultured for 24 hours. Then, HeLa cells were treated with 70 types of compounds at a concentration of 40 μM each for 9 hours. HeLa cells were washed twice with cold 1×PBS, and then lysed with 100 μl of RIPA buffer (50 mM Tris-HCl (pH7.4), 0.25% sodium deoxycholate, 50 mM NaF, 1% NP-40, 150 mM NaCl, 1 mM β-glycerophosphate, 1 mM PMSF, 1 mM NaVO4, 1 μg/ml leupeptin, 1 μg/ml pepstatin A, 10 nM calyculin A, 10 μg/ml aprotinin, 1 mM EDTA) to hemolyze the cell membrane. Then, the lysates were centrifuged at 12,000 rpm at 4° C. for 10 minutes to collect the supernatant, which is cell lysate. Protein concentration in the cell lysate was determined using the BCA protein assay kit (Thermo Fisher Scientific), and equal amounts of protein were separated by SDS-PAGE.
(§3) Western blot analysis was performed by the following method. […] After washing the membrane three times for 5 minutes each with TBS-T buffer, it was incubated with primary antibodies diluted in TBS-T buffer containing 5% skim milk or 5% BSA overnight at 4° C. Subsequently, the membrane was washed three times for 5 minutes each with TBS-T buffer, and then incubated with secondary antibodies diluted in TBS-T buffer containing 5% skim milk at room temperature for 30 minutes. The membrane was washed five times for 5 minutes each with TBS-T buffer containing 5% skim milk, and then the protein bands bound by the secondary antibody were detected using a chemiluminescence method. The primary antibodies used were Akt (cell signaling, #4691), pAkt(S473) (Cell signaling, #4060), p70S6K (Cell signaling, #S6198), pp70S6K(T389) (cell signaling, #9205S), LC3-II (MBL, #PM036), and the secondary antibodies used were HRP conjugated anti-rabbit (Jackson immunoresearch laboratory, #711-035-152) and HRP conjugated anti-mouse IgG (Jackson immunoresearch laboratory, #515-035-072).
As an mTORC2 activity indicator in HeLa cells, the level of Akt Ser473 phosphorylation was selected as a marker, and the phosphor-Akt (Ser473) signal obtained from Western blot analysis was normalized to the pan-Akt signal, and the data were expressed as a percentage relative to the control group treated with DMSO only, which is a vehicle.

mTORC1 [3] = target: T2, mTORC1 (Homo sapiens, UniProt P42345); assay: mTORC1 inhibitory activity in HeLa cells (p70S6K Thr389 phosphorylation, Western blot); format: cell-based; settings: 9 hours; for remaining activity at 40 µM: read-out: pThr389-S6K/S6K (% control)
T2 construct: the following experiments were conducted in HeLa cells; endogenous in cells; host or cells: HeLa
Experimental: as §1, §2, §3
As an mTORC1 activity indicator in HeLa cells, the level of p70S6K Thr389 phosphorylation was selected as a marker, and the level of phosphor-p70S6K (Thr389) signal measured by Western blot analysis was normalized to a level of pan-p70S6K signal, and then expressed as a percentage of the control group treated with only DMSO, which is a vehicle.

mTORC2 [4] = assay: mTORC2 inhibitory activity in primary cultured cerebral neurons (Akt Ser473 phosphorylation); format: cell-based, SD mice; settings: for effect on Akt Ser473 phosphorylation / decrease in AKT Ser473 phosphorylation at 24 hours: 500 nM or 100 nM; for effect on Akt Ser473 phosphorylation / pSer473-AKT/AKT (% control): 24 hours
Experimental: Specifically, primary neural cells were cultured from the cerebral cortex of E16 embryos of SD mice with a gestational age 16-day (Orient Bio). The extracted brain was separated into the left and right hemispheres, the meninges were removed, and the brains were treated with trypsin in Ca^2+/Mg^2+-free HBSS solution.
The time-dependent changes in Akt Ser473 phosphorylation, Akt Thr308 phosphorylation, and LC3-II levels were measured by Western blot analysis.

mTORC1 [5] = assay: mTORC1 inhibitory activity in primary cultured cerebral neurons (S6K Thr389 phosphorylation); format: cell-based, SD mice; settings: for effect on S6K Thr389 phosphorylation: 500 nM or 100 nM, time course to 24 hours (HN2304: from 6 to 24 hours); for pThr389-S6K/S6K (% control): 24 hours
LC3-II [6] = assay: LC3-II formation as indicator of autophagy in HeLa cells (Western blot); format: cell-based, human; settings: Homo sapiens, 9 hours, read-out: LC3-II (% control)
Experimental: as §1, §2, §3
LC3-II formation was selected as an indicator of autophagy in HeLa cells, and the LC3-II signal obtained from Western blot analysis was normalized to the pan-Akt signal and the data were expressed as a percentage relative to the control group treated with DMSO only, which is a vehicle.

[7] = system: 5×FAD Alzheimer's disease model mice; assay: Passive avoidance test in 5×FAD mice (long-term memory); format: in vivo; settings: 5 mg/kg, 14 days / 2 weeks (FIG. 7)
Experimental: In order to evaluate the efficacy of HN2210, HN2213, and HN2313 on Alzheimer's disease-related symptoms, specifically regarding 1) memory and cognitive impairment, 2) amyloid plaques, 3) neurofibrillary tangles (NFTs), and 4) brain inflammation, an in vivo efficacy assessment of HN2210, HN2213 and HN2313 was conducted using 5×FAD Alzheimer's disease model mice. The 5×FAD mice were purchased from Jackson Lab, USA (Cat #034840-JAX) and crossed once with C57bl6 mice to produce F1 heterozygous offspring (Het). The compound was administered via intraperitoneal injection to 6-month-old 5×FAD Het mice, followed by behavioral testing. The normal control mice, which were littermates of the 5×FAD Het mice, were aged to 6 months and received DMSO injection at the same volume.
Specifically, to mice trained to avoid bright light three times daily, an electric foot shock (1 mA, 300 g) was applied for 3 seconds in a dark room at the same time on the next day. After 24 hours, the mice were placed again in the same room, and the avoidance response by light, that is, the time taken to move from the bright room to the dark room was measured. At 24 hours after habituation training, the mice were placed back into the bright room, and the latency time for entering the dark room was recorded over a period of 720 seconds.

Compound | selective inhibition of mTORC2 (mTORC2 [2]) | remaining activity at 40 µM (mTORC2 [2]) | inhibition at 40 µM (mTORC2 [2]) | remaining activity at 40 µM (mTORC1 [3]) | activity at 40 µM (LC3-II [6]) | also measured
COc1cc2c(cc1OC)C(=O)c1cc(Br)ccc1CS2 [HN2304, 9-bromo-2,3-dimethoxydibenzo[b,e]thiepin-11(6H)-one] | selectively inhibit mTORC2 | 44% | > 20% | 204% | – | effect on LC3-II (LC3-II [1]): not affected; LC3-II (% control) (LC3-II [1]; 500 nM): 82 % control; selectivity for mTORC2 over mTORC1 (mTORC2 [4]): selective mTORC2 inhibitors; effect on Akt Ser473 phosphorylation (mTORC2 [4]): reduce Akt Ser473 phosphorylation; decrease in AKT Ser473 phosphorylation at 24 hours (mTORC2 [4]): 17%; pSer473-AKT/AKT (% control) (mTORC2 [4]; 500 nM): 82 % control; AKT Ser473 phosphorylation from 1 to 12 hours (mTORC2 [4]): significantly increased; effect on S6K Thr389 phosphorylation (mTORC1 [5]): markedly increased; pThr389-S6K/S6K (% control) (mTORC1 [5]; 500 nM): 504 % control
COc1cc2c(cc1OC)C(=O)c1cc(F)c(N3CCCCC3)cc1CC2 [HN2315, 3-fluoro-7,8-dimethoxy-2-(piperidin-1-yl)-10,11-dihydro-5H-dibenzo[a,d][7]annulen-5-one] | selectively inhibit mTORC2 | 28% | > 20% | 223% | 620% | –
CO[C@H]1C[C@@H]2CC[C@@H](C)[C@@](O)(O2)C(=O)C(=O)N2CCCC[C@H]2C(=O)O[C@H]([C@H](C)C[C@@H]2CC[C@@H](O)[C@H](OC)C2)CC(=O)[C@H](C)/C=C(\C)[C@@H](O)[C@@H](OC)C(=O)[C@H](C)C[C@H](C)/C=C/C=C/C=C/1C [rapamycin, reference compound] | – | – | – | – | – | passive avoidance latency time, % of the normal control level [7]: ~36%
COc1ccc(CNc2cc3c(cc2F)C(=O)c2cc4c(cc2OC3)OCO4)c(OC)c1 [HN2328, 8-((2,4-dimethoxybenzyl)amino)-9-fluoro-[1,3]dioxolo[4′,5′:4,5]benzo[1,2-b]benzo[e]oxepin-11(6H)-one] | selectively inhibit mTORC2 | 78% | > 20% | 86% | 340% | –
O=C1c2cc3c(cc2OCc2c1ccc(NC1CC1)c2F)OCO3 [HN2318, 8-(cyclopropylamino)-7-fluoro-[1,3]dioxolo[4′,5′:4,5]benzo[1,2-b]benzo[e]oxepin-11(6H)-one] | selectively inhibit mTORC2 | 42% | > 20% | 109% | 227% | –

Now from value to compound, other results behind:

selective inhibition of mTORC2 (mTORC2 [2]) | remaining activity at 40 µM (mTORC2 [2]) | inhibition at 40 µM (mTORC2 [2]) | remaining activity at 40 µM (mTORC1 [3]) | Compound | activity at 40 µM (LC3-II [6]) | also measured
selectively inhibit mTORC2 | 44% | – | 95% | COc1cc2c(cc1OC)C(=O)c1cc(-c3ccoc3)ccc1CS2 [HN2308, 9-(3-furanyl)-2,3-dimethoxydibenzo[b,e]thiepin-11(6H)-one] | – | LC3-II (% control) (LC3-II [1]; 100 nM): 119 % control; effect on LC3-II (LC3-II [1]): no effect; effect on S6K Thr389 phosphorylation (mTORC1 [3]; 40 μM): no effect; selectivity for mTORC2 over mTORC1 (mTORC2 [4]): selective mTORC2 inhibitors; pSer473-AKT/AKT (% control) (mTORC2 [4]; 100 nM): 46 % control; effect on Akt Ser473 phosphorylation (mTORC2 [4]): reduce Akt Ser473 phosphorylation; decrease in AKT Ser473 phosphorylation at 24 hours (mTORC2 [4]): 54%; AKT Ser473 phosphorylation from 1 to 12 hours (mTORC2 [4]): increased AKT Ser473 phosphorylation significantly; pThr389-S6K/S6K (% control) (mTORC1 [5]; 100 nM): 104 % control; effect on S6K Thr389 phosphorylation (mTORC1 [5]): no effect
selectively inhibit mTORC2 | 28% | > 20% | 179% | O=C1c2cc(F)ccc2COc2cc3c(cc21)OCO3 [HN2203, 9-fluoro[2]benzoxepino[3,4-f]-1,3-benzodioxol-11(6H)-one] | 119% | –
selectively inhibit mTORC2 | 67% | > 20% | 99% | O=C1c2cc(-c3ccc(Cl)cc3)ccc2COc2cc3c(cc21)OCO3 [HN2214, 9-(4-chlorophenyl)[2]benzoxepino[3,4-f]-1,3-benzodioxol-11(6H)-one] | 154% | –
selectively inhibit mTORC2 | 74% | > 20% | 107% | COc1ccc(CCNc2ccc3c(c2F)COc2cc4c(cc2C3=O)OCO4)cc1 [HN2233, 8-((4-methoxyphenethyl)amino)-7-fluoro[2]benzoxepino[3,4-f]-1,3-benzodioxol-11(6H)-one] | 121% | –
selectively inhibit mTORC2 | 48% | > 20% | 136% | O=C1c2cc3c(cc2OCc2c1ccc(N1CCC(Cc4ccccc4)CC1)c2F)OCO3 [HN2232, 8-(4-benzylpiperidin-1-yl)-7-fluoro[2]benzoxepino[3,4-f]-1,3-benzodioxol-11(6H)-one] | 64% | –
